Laboratory results published in patent publication US10919896B2, “Preparation and uses of pyrimidinone derivatives” (Cancer Research Technology Limited, priority 2016, dated 2021).
Where a name gives a salt, the structure may show the parent alone.

How the values were obtained:
[1] = test system: Cdc7 (pS40MCM2 levels in HCT116 cells); experiment: Cdc7 Cell Pharmacodynamics Assay Method 2B: pS40MCM2 levels in HCT116 cells, 18 hours; assay type: cell-based; settings: Homo sapiens, HCT-116, read-out: Biomarker Method 2B (pEC50) (converted)
How it was run: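 HCT116 cells seeded at 20,000/well, settled overnight, then treated with compound (1:400 dilution from compound plate) for 6 h (Method 2A) or 18 h (Method 2B) at 37° C. Lysates captured on total-MCM2 antibody plates; pS40 MCM2 detected with rabbit anti-pMCM2 Ser40, HRP secondary and chemiluminescent substrate.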

Cdc7/ASK = Cdc7/ASK (Homo sapiens, UniProt O00311); experiment: Cdc7 Biochemical Assay Method 4: off-chip mobility shift assay (Carna Biosciences); design: purchased Carna Biosciences; host or cells: baculovirus expression system; settings: off-chip MSA, MCM2 peptide, 5 hours; read-out: Biochemical Method 4 (pIC50) (converted)
Chain of Cdc7/ASK (O00311 whole entry): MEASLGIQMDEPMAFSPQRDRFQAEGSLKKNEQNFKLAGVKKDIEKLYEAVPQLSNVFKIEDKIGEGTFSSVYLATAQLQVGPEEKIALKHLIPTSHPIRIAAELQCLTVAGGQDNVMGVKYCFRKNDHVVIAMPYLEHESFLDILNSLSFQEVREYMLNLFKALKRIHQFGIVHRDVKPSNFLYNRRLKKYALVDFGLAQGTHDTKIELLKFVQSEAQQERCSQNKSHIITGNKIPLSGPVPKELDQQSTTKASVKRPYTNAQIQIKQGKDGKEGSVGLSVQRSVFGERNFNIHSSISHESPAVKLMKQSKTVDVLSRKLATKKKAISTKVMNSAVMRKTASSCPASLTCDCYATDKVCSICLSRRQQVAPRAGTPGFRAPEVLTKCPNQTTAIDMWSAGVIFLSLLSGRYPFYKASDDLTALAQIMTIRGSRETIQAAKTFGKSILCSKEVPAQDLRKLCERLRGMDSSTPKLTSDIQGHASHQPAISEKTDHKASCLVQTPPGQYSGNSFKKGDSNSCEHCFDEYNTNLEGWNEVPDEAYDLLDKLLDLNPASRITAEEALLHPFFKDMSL
Chain of Cdc7/ASK (Q9UBU7 whole entry partner): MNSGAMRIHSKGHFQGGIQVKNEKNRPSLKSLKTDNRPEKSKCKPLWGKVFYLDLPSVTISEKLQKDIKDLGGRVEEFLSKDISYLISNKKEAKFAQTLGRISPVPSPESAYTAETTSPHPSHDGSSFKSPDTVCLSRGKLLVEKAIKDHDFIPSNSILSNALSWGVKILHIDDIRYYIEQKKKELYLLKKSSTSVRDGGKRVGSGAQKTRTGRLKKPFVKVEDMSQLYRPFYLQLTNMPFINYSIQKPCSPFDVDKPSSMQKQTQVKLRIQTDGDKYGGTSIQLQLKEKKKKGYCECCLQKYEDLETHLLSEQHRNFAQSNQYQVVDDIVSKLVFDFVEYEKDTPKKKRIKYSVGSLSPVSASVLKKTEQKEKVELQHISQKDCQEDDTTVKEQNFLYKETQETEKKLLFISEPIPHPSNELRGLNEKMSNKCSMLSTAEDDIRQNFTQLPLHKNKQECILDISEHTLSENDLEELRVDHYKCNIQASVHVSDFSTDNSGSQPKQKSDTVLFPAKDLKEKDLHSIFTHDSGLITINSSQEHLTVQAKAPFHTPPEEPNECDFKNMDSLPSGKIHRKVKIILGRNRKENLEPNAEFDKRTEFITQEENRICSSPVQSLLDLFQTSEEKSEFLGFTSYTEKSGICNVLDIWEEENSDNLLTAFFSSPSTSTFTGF
Procedure: This protocol describes a method for assaying Cdc7/ASK for activity. The assay is an off-chip mobility shift assay (MSA) run at Carna Biosciences.
1. Preparation of Test Compound Solution.
The test compound was dissolved in and diluted with dimethylsulfoxide (DMSO) to achieve 100-fold higher concentration which was specified by the sponsor. Then the solution was further 25-fold diluted with assay buffer to make the final test compound solution. Reference compounds for assay control were prepared similarly.
Cdc7/ASK: Full-length human Cdc7 [1-574(end) amino acids of accession number NP_003494.1] was co-expressed as N-terminal GST-fusion protein (92 kDa) with Dbf4(ASK) [1-674(end) amino acids of accession number NP_006707.1] using baculovirus expression system. GST-Cdc7 was purified by using glutathione sepharose chromatography.
3. Assay Reagents and Procedures
Off-chip Mobility Shift Assay (MSA)
1) The […] of ×2 kinase solution were prepared with assay buffer (20 mM HEPES, 0.01% Triton X-100, 1 mM DTT, pH 7.5) and mixed and incubated in a well of polypropylene 384 well microplate for 5 hours at room temperature. 2) […] of Termination Buffer (QuickScout Screening Assist MSA; Carna Biosciences) was added to the well. 3) The reaction mixture was applied to LabChip system (Perkin Elmer), and the product and substrate peptide peaks were separated and quantitated. 4) The kinase reaction was evaluated by the product ratio calculated from peak heights of product (P) and substrate (S) peptides (P/(P+S)).
Reaction time is 5 hours.
The readout value of reaction control (complete reaction mixture) was set as a 0% inhibition, and the readout value of background (Enzyme(−)) was set as a 100% inhibition, then the percent inhibition of each test solution was calculated.
IC50 value was calculated from concentration vs. % Inhibition curves by fitting to a four parameter logistic curve.

| SMILES | EC50 [1] | IC50 (Cdc7/ASK) |
| --- | --- | --- |
| O=c1[nH]c(-c2ccnc(F)c2)nc(N2CCCC(F)(F)C2)c1Cl [Compound 90, 5-chloro-4-(3,3-difluoro-1-piperidyl)-2-(2-fluoro-4-pyridyl)-1H-pyrimidin-6-one] | 13.5 nM | – |
| O=c1[nH]c(-c2ccnc(F)c2)nc(N2CCNCC(F)(F)C2)c1Cl [Compound 312, 5-chloro-4-(6,6-difluoro-1,4-diazepan-1-yl)-2-(2-fluoro-4-pyridyl)-1H-pyrimidin-6-one hydrochloride] | 7.59 nM | 3.72 nM |
| C[C@@H]1CNCCN1c1nc(-c2ccnc(F)c2)[nH]c(=O)c1Cl [Compound 323] | 5.62 nM | 3.09 nM |
